Assay results reported in PMC13070491, “Single-nucleus transcriptomics, pharmacokinetics, and pharmacodynamics of CDK4/6 and mTOR inhibition in a Phase 0/1 trial of recurrent high-grade glioma” (Neuro-Oncology, 2025).

Tested on: GB126, GB239 and GB86 patient-derived cell lines
Experiment: In vitro single-cell RNA sequencing, analyses across the cell lines (pseudobulk differential gene expression, GSEA, non-cycling cells)
Assay type: cell-based, human
Settings: pseudobulk, ribociclib versus control (DMSO)
Description: Patient-derived glioma stem cell lines (GSCs; GB126, GB86, and GB239) were established from resected GBM tumor tissue. Cell lines were genetically profiled for mutations and copy number aberrations using the IvySeq custom gene panel. […] GB239 was derived from a tumor sample included in this Phase 0 trial (tumor sample: 100-0039). All human GSCs were cultured as described previously.[12]
Following the fifth day of drug exposure, cells were harvested, cryopreserved to be processed at a later point, or immediately processed for single-cell RNA sequencing (10x Genomics, 3’ version 3). The single-cell RNA sequencing data were then processed via cellranger count and Seurat. Briefly, cells were filtered out based on the following criteria: minimum number of genes detected >500 and <10 000 with a maximum percentage of mitochondrial genes set to 10%. Statistical assessment was made between the malignant proportions of each cell state using a 2-sided paired t-test.
Descriptive statistics of the clinical data are included in Table 1. Comparisons between groups were conducted using a 2-sided or paired 2-sided t-test, where indicated. P < .05 was considered significant. Multiple hypothesis test corrections (ie, false discovery rate correction) were applied for snRNAseq pseudobulk differential expression analysis.

Structure (SMILES): CN(C)C(=O)c1cc2cnc(Nc3ccc(N4CCNCC4)cn3)nc2n1C1CCCC1 [ribo]
- log2FoldChange RTP4 (gene RTP4): 2.131
- log2FoldChange (gene SAC3D1): -1.1095
- log2FoldChange SEC16B (gene SEC16B): 1.622
- log2FoldChange (gene SGO1): -1.732
- log2FoldChange (gene SHISA8): -1.822
- log2FoldChange (gene SLC2A4RG): -1.127
- log2FoldChange SNCG (gene SNCG): 1.82
- log2FoldChange (gene SNRPB): -1.13
- log2FoldChange SP6 (gene SP6): 1.619
- log2FoldChange SPTBN5 (gene SPTBN5): 1.5798
- log2FoldChange (gene STARD8): -1.058
- log2FoldChange (gene TCF19): -1.684
- log2FoldChange (gene TEKT2): -1.108
- log2FoldChange TEKT4 (gene TEKT4): 1.53
- log2FoldChange TEX29 (gene TEX29): 1.88
- log2FoldChange TLR8 (gene TLR8): 1.7124
- log2FoldChange TM4SF4 (gene TM4SF4): 1.515
- log2FoldChange TMEM88 (gene TMEM88): 1.467
- log2FoldChange (gene TMPO): -1.685
- log2FoldChange (gene TNFRSF13C): -1.634
- log2FoldChange (gene TRPC3): -1.603
- log2FoldChange (gene TUBA1B): -1.731
- log2FoldChange TUSC7 (gene TUSC7): 1.959
- log2FoldChange (gene TYMSOS): -1.808
- log2FoldChange (gene UBE2S): -1.812
- log2FoldChange (gene UHRF1): -1.689
- log2FoldChange (gene WDR62): -1.744
- log2FoldChange (gene XRCC2): -1.646
- log2FoldChange ZCCHC23 (gene ZCCHC23): 1.565
- log2FoldChange, feature AC004835.1: -1.938
- log2FoldChange, feature AC011139.1: -2.033
- log2FoldChange, feature AC020658.4: -2.697
- log2FoldChange, feature AC027277.1: -2.37
- log2FoldChange, feature AC027627.1: -3.761
- log2FoldChange, feature AC079753.2: -3.036
- log2FoldChange, feature AC084757.2: -2.199
- log2FoldChange, feature AC087721.1: -2.244
- log2FoldChange, feature AC097534.1: -1.917
- log2FoldChange, feature AC099845.1: -2.325
- log2FoldChange, feature AF233439.1: -2.426
- log2FoldChange, feature AL023803.2: -2.112
- log2FoldChange, feature AL136528.1: -3.4157
- log2FoldChange, feature AL606468.1: -2.361
- log2FoldChange, feature AL606500.1: -4.456
- log2FoldChange, feature ANLN: -2.17
- log2FoldChange, feature APOLD1: -2.2948
- log2FoldChange, feature ARHGEF16: -2.5327
- log2FoldChange, feature ARHGEF39: -2.785
- log2FoldChange, feature ASF1B: -2.413
- log2FoldChange, feature ASPM: -2.923
- log2FoldChange, feature AURKA: -1.946
- log2FoldChange, feature AURKB: -5.69
- log2FoldChange, feature BIRC5: -4.128
- log2FoldChange, feature BUB1B: -2.255
- log2FoldChange, feature C1QL1: -2.176
- log2FoldChange, feature CCNA1: -1.944
- log2FoldChange, feature CCNA2: -3.66
- log2FoldChange, feature CCNB1: -2.309
- log2FoldChange, feature CCNB2: -2.58
- log2FoldChange, feature CDC20: -2.615
- log2FoldChange, feature CDC25C: -2.251
- log2FoldChange, feature CDC45: -1.967
- log2FoldChange, feature CDCA2: -2.288
- log2FoldChange, feature CDCA3: -4.424
- log2FoldChange, feature CDCA5: -2.481
- log2FoldChange, feature CDCA8: -2.683
- log2FoldChange, feature CDK1: -3.117
- log2FoldChange, feature CDT1: -2.6933
- log2FoldChange, feature CENPE: -2.304
- log2FoldChange, feature CENPF: -2.646
- log2FoldChange, feature CENPM: -2.763
- log2FoldChange, feature CENPU: -1.962
- log2FoldChange, feature CEP55: -2.857
- log2FoldChange, feature CIT: -1.908
- log2FoldChange, feature CKAP2L: -3.667
- log2FoldChange, feature COL2A1: -2.114
- log2FoldChange, feature CSRP3-AS1: -2.408
- log2FoldChange, feature DEPDC1: -2.44
- log2FoldChange, feature DHRS2: -3.141
- log2FoldChange, feature DIAPH3: -2.737
- log2FoldChange, feature DIAPH3-AS1: -2.318
- log2FoldChange, feature DLGAP5: -4.307
- log2FoldChange, feature DUSP9: -1.8912
- log2FoldChange, feature E2F1: -2.143
- log2FoldChange, feature E2F2: -2.717
- log2FoldChange, feature E2F7: -1.962
- log2FoldChange, feature E2F8: -4.471
- log2FoldChange, feature EMILIN3: -2.469
- log2FoldChange, feature ESCO2: -3.335
- log2FoldChange, feature ESPL1: -2.787
- log2FoldChange, feature EXO1: -2.588
- log2FoldChange, feature FAM72C: -1.941
- log2FoldChange, feature FAM83D: -2.106
- log2FoldChange, feature FAM111B: -3.61
- log2FoldChange, feature FBLN7: -2.095
- log2FoldChange, feature FBXO5: -2.254
- log2FoldChange, feature FOXM1: -3.356
- log2FoldChange, feature FOXN4: -2.7907
- log2FoldChange, feature GTSE1: -3.691
- log2FoldChange, feature H2AFX: -1.9706
- log2FoldChange, feature HIST1H1B: -4.86
- log2FoldChange, feature HIST1H1D: -3.125
- log2FoldChange, feature HIST1H1E: -2.149
- log2FoldChange, feature HIST1H2AB: -3.666
- log2FoldChange, feature HIST1H2AD: -2.176
- log2FoldChange, feature HIST1H2AG: -3.09
- log2FoldChange, feature HIST1H2AH: -3.181
- log2FoldChange, feature HIST1H2AI: -3.193
- log2FoldChange, feature HIST1H2AJ: -3.606
- log2FoldChange, feature HIST1H2AK: -2.038
- log2FoldChange, feature HIST1H2AL: -4.067
- log2FoldChange, feature HIST1H2AM: -2.962
- log2FoldChange, feature HIST1H2BB: -4.24
- log2FoldChange, feature HIST1H2BF: -2.791
- log2FoldChange, feature HIST1H2BH: -2.674
- log2FoldChange, feature HIST1H2BI: -3.141
- log2FoldChange, feature HIST1H2BK: -2.1572
- log2FoldChange, feature HIST1H2BL: -3.055
- log2FoldChange, feature HIST1H2BM: -3.899
- log2FoldChange, feature HIST1H2BO: -4.102
- log2FoldChange, feature HIST1H3A: -2.494
- log2FoldChange, feature HIST1H3B: -4.012
- log2FoldChange, feature HIST1H3C: -3.43
- log2FoldChange, feature HIST1H3D: -3.164
- log2FoldChange, feature HIST1H3F: -4.011
- log2FoldChange, feature HIST1H3G: -5.89
- log2FoldChange, feature HIST1H3I: -2.396
- log2FoldChange, feature HIST1H4A: -2.4627
- log2FoldChange, feature HIST1H4B: -3.363
- log2FoldChange, feature HIST1H4C: -2.564
- log2FoldChange, feature HIST1H4D: -2.3219
- log2FoldChange, feature HIST1H4L: -3.364
- log2FoldChange, feature HIST2H2AA4: -2.973
- log2FoldChange, feature HIST2H2AB: -2.432
- log2FoldChange, feature HIST2H2AC: -2.094
- log2FoldChange, feature HIST2H3D: -3.112
- log2FoldChange, feature HIST2H4B: -3.0547
- log2FoldChange, feature HJURP: -3.812
- log2FoldChange, feature HMGB2: -3.4975
- log2FoldChange, feature HMGN2: -1.988
- log2FoldChange, feature HMMR: -2.398
- log2FoldChange, feature HMMR-AS1: -1.986
- log2FoldChange, feature IQGAP3: -3.825
- log2FoldChange, feature KIF2C: -3.46
- log2FoldChange, feature KIF4A: -3.264
- log2FoldChange, feature KIF11: -2.445
- log2FoldChange, feature KIF14: -1.93
- log2FoldChange, feature KIF15: -2.295
- log2FoldChange, feature KIF18B: -3.458
- log2FoldChange, feature KIF20A: -5.621
- log2FoldChange, feature KIF23: -2.582
- log2FoldChange, feature KIFC1: -3.063
- log2FoldChange, feature KNL1: -2.569
- log2FoldChange, feature LHX2: -2.082
- log2FoldChange, feature LINC00243: -2.438
- log2FoldChange, feature LINC01647: -5.161
- log2FoldChange, feature LINC01775: -2.182
- log2FoldChange, feature LMNB1: -1.981
- log2FoldChange, feature MCM10: -2.2
- log2FoldChange, feature MELK: -2.093
- log2FoldChange, feature MIR924HG: -2.274
- log2FoldChange, feature MKI67: -6.243
- log2FoldChange, feature MUC22: -3.844
- log2FoldChange, feature MXD3: -2.803
- log2FoldChange, feature MYB: -2.501
- log2FoldChange, feature MYBL2: -3.875
- log2FoldChange, feature NCAPG: -2.9227
- log2FoldChange, feature NCAPH: -2.746
- log2FoldChange, feature NDC80: -2.667
- log2FoldChange, feature NEIL3: -3.743
- log2FoldChange, feature NEK2: -3.576
- log2FoldChange, feature NEURL1B: -1.929
- log2FoldChange, feature NMU: -2.574
- log2FoldChange, feature NRM: -1.8865
- log2FoldChange, feature NRTN: -3.311
- log2FoldChange, feature NT5DC4: -2.34
- log2FoldChange, feature NUSAP1: -3.196
- log2FoldChange, feature NXPH2: -2.198
- log2FoldChange, feature PAK6: -1.969
- log2FoldChange, feature PAPOLB: -2.347
- log2FoldChange, feature PBK: -3.281
- log2FoldChange, feature PCLAF: -3.5822
- log2FoldChange, feature PCNA: -1.969
- log2FoldChange, feature PIF1: -3.124
- log2FoldChange, feature PIMREG: -3.009
- log2FoldChange, feature PKMYT1: -2.904
- log2FoldChange, feature PLK1: -3.608
- log2FoldChange, feature PRC1: -2.44
- log2FoldChange, feature PRIM1: -2.274
- log2FoldChange, feature PTTG1: -2.767
- log2FoldChange, feature RAD51AP1: -1.918
- log2FoldChange, feature RAD54L: -1.967
- log2FoldChange, feature RPP25: -1.919
- log2FoldChange, feature RRM2: -5.156
- log2FoldChange, feature SAPCD2: -1.989
- log2FoldChange, feature SDC1: -2.261
- log2FoldChange, feature SHCBP1: -2.035
- log2FoldChange, feature SKA1: -3.026
- log2FoldChange, feature SLC7A3: -2.68
- log2FoldChange, feature SPAG5: -2.024
- log2FoldChange, feature SPC24: -2.603
- log2FoldChange, feature SPC25: -3.836
- log2FoldChange, feature TACC3: -2.439
- log2FoldChange, feature TICRR: -2.318
- log2FoldChange, feature TK1: -2.815
- log2FoldChange, feature TMPO-AS1: -2.127
- log2FoldChange, feature TMSB15A: -2.211
- log2FoldChange, feature TOP2A: -4.082
- log2FoldChange, feature TP73: -3.442
- log2FoldChange, feature TPX2: -2.42
- log2FoldChange, feature TROAP: -3.212
- log2FoldChange, feature TTK: -1.967
- log2FoldChange, feature TYMS: -2.957
- log2FoldChange, feature UBE2C: -3.754
- log2FoldChange, feature UBE2T: -1.955
- log2FoldChange, feature WDR76: -2.235
- log2FoldChange, feature ZWINT: -1.901
